Reference: article PMC7697948, “Deciphering Novel Antimicrobial Peptides from the Transcriptome of Papilio xuthus” (Insects, 2020)

Columns and labels:
mouse erythrocytes = assay: Hemolytic assay; format: cell-based; details: 12.5 μg/mL; 2.5% (v/v) mouse erythrocytes in PBS, 30 min at 37 °C, absorbance at 540 nm; at least three independent experiments in triplicate
Procedure: This experiment was approved by the Institutional Animal Care and Use Committee (IACUC) of the National Institute of Agricultural Sciences (approval number: NAS-202014). The hemolytic activity of the peptides was determined by monitoring the release of hemoglobin from mouse erythrocytes at 540 nm. For the hemolytic assay, 20 μL of each peptide solution at a predetermined concentration was added to 180 μL of a 2.5% (v/v) suspension of mouse erythrocytes in phosphate-buffered saline (PBS). Melittin (Sigma, USA), a hemolytic and α-helical peptide isolated from bee venom, was used as the positive control. This mixture was incubated for 30 min at 37 °C, and 600 μL of PBS was then added to each tube. After 3 min of centrifugation at 10,000× g, the supernatant was removed, and the absorbance was measured at 540 nm. Evaluations were made from the results of at least three independent experiments, each carried out in triplicate.

[1] = tested on: Gram-positive and Gram-negative bacteria; details: effect more pronounced in Gram-negative strains; cited from earlier work
Description: (§1) Papilio xuthus (P. xuthus), commonly known as the swallowtail butterfly, is found in the far east Asian regions of Korea, Japan, China, Taiwan, and Myanmar. Papiliocin is the 37 residue α-helical cecropin-like AMP isolated from an immune challenged larvae of swallowtail butterfly. […] Additionally, the antibacterial and antifungal activity of papiliocin is observed in multidrug- resistant bacterial and fungal strains, respective ...

[2] = cited from earlier work
Description: as §1

mammalian cells = details: cited from earlier work
Description: as §1

| Molecule | hemolysis of mouse red blood cells (mouse erythrocytes) [%] | bactericidal activity [1] | anti-inflammatory activity [2] | toxicity toward mammalian cells (mammalian cells) |
| --- | --- | --- | --- | --- |
| CC[C@H](C)[C@H](NC(=O)CN)C(=O)NCC(=O)N[C@@H](C)C(=O)N[C@H](C(=O)N[C@@H](CC(C)C)C(=O)N[C@@H](CCCCN)C(=O)N[C@H](C(=O)N[C@@H](CC(C)C)C(=O)N[C@H](C(=O)N[C@H](C(=O)NCC(=O)N[C@@H](CC(C)C)C(=O)N1CCC[C@H]1C(=O)N[C@@H](C)C(=O)N[C@@H](CC(C)C)C(=O)N[C@H](C(=O)N[C@@H](CO)C(=O)N[C@@H](Cc1c[nH]c2ccccc12)C(=O)N[C@H](C(=O)N[C@@H](CCCCN)C(=O)N[C@@H](CCCNC(=N)N)C(=O)N[C@@H](CCCCN)C(=O)N[C@@H](CCCNC(=N)N)C(=O)N[C@@H](CCC(N)=O)C(=O)N[C@@H](CCC(N)=O)C(N)=O)[C@@H](C)CC)[C@@H](C)CC)[C@@H](C)O)[C@@H](C)O)C(C)C)C(C)C [Melittin] | 92 | – | – | – |
| Papiliocin | – | bactericidal activity against both Gram-positive and Gram-negative bacteria | anti-inflammatory activity | non-toxicity toward mammalian cells |
